Results: patent US20060008849A1, “Methods for measuring chloride channel conductivity” (priority 2004, published 2006)

Experiments:
human CFTR channel = experiment: Sandell-Kolthoff (SK) assay on the outwardly rectifying CFTR channel, HTB-79 cells; assay type: cell-based
Protocol: HTB-79 cell line intrinsically expressing the human CFTR channel was obtained from ATCC. The CRL-1918 cell line, having a defective CFTR channel, was also obtained from ATCC. Cells were grown in Iscove's modified Dulbecco's medium consisting of Iscove's modified medium (CELLGRO, VA) and 4 mM L-glutamine, 1.5 g/L sodium bicarbonate, and 20% FBS (CELLGRO, VA). HTB-79 cells in Iscove's modified Dulbecco's medium (200 μl, approx. 500,000 cells/ml) were added to each well of a costar 96-well plate (Corning Costar, NY), and were incubated overnight in a tissue culture incubator at 37° C. under 90% air/5% CO2. Then, the Iscove's modified Dulbecco's medium was removed and 200 μl of iodine-loading buffer was added to each well of the plate. Cells were incubated for 2-4 hours at 37° C. under 90% air/5% CO2 and washed with DPBS (Invitrogen, CA) or culture medium. DPBS (100-200 μl) was added to each well. […] After the cells were incubated at room temperature for an additional 5 minutes, they were separated from the suspending buffer, and were lysed with 100 μl of cell lysis buffer (1% Triton X-100). The amount of I^− in the lysed cells was measured by the SK assay procedure described in Example 1. […] Forskolin stimulated adenylate cyclase activity resulting in increased level of cAMP, which in turn activated CFTR channel.

human GABAA channel = molecular target: T1, human GABAA channel (UniProt P18508+P28472+P62813); experiment: Sandell-Kolthoff (SK) assay on the outwardly rectifying GABAA receptor (iodide efflux); assay type: cell-based; settings: IC50, decrease of GABAA channel conductivity
T1 construct: host or cells: ATCC CRL-2029 (WSS-1, HEK293-derived, by own knowledge)
T1 sequence (P62813 28-455): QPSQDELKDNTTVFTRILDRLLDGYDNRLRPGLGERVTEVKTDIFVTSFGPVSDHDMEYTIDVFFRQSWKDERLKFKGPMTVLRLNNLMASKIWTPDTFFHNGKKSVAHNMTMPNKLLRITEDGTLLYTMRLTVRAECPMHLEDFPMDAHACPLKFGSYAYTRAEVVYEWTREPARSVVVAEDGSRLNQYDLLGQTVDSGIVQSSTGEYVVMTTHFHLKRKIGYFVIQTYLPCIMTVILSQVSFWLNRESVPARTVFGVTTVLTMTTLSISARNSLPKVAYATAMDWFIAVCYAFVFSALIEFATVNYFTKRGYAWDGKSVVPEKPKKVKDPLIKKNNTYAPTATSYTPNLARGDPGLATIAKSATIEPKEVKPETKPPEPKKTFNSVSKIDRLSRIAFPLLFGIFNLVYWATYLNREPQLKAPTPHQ
T1 sequence (P28472 26-473): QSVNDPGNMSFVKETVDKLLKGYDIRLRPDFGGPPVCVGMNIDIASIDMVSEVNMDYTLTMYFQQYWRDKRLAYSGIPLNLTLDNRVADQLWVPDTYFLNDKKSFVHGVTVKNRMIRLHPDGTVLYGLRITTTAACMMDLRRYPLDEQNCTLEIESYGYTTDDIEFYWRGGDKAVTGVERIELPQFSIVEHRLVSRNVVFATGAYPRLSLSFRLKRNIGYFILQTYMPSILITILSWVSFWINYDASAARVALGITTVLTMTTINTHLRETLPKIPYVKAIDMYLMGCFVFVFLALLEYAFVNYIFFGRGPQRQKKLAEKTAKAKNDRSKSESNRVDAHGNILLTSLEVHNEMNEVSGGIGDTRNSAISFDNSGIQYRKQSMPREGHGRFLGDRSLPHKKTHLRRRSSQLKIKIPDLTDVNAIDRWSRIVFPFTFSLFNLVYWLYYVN
T1 sequence (P18508 39-466): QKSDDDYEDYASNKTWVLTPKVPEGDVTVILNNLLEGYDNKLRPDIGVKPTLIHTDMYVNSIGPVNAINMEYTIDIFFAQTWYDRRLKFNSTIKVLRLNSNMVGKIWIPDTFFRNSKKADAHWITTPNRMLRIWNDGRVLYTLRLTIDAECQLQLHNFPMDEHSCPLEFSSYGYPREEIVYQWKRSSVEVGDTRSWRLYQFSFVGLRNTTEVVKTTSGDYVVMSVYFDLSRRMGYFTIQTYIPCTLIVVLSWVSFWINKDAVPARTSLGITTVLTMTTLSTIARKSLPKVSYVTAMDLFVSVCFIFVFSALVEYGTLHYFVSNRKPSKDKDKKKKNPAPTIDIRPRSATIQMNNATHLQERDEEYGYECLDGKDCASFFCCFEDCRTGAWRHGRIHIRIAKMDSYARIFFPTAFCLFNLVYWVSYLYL
Protocol: In addition, the iodine loading buffer consisting of 150 mM NaI, 2 mM CaCl2, 0.8 mM NaH2PO4, 1 mM of MgCl2, and 5 mM of IK, 2% FBS (# 35-010-AV, CELLGRO, VA) pH7.4, was prepared by mixing and dissolving each described component into purified water, and adjusting the pH accordingly.
Cell line expressing human GABAA (Adenovirus type) was obtained from the American Type Culture Collection (ATCC, Cat No. CRL-2029). Cells were grown in supplemented DMEM medium consisting of DMEM medium (#10-017-CV, CELLGRO, VA), 4 mM L-glutamine, 1.5 g/L sodium bicarbonate, 4.5 g/L glucose, 1.0 mM sodium pyruvate, and 10% fetal bovine serum (# 35-010-AV, CELLGRO, VA)
Cells in supplemented DMEM medium (200 μl, approx. 250,000 cells/ml) were added to each well of a D-lysine coated 96-well plate (Corning, Cat No. 3667), and were incubated overnight in a tissue culture incubator at 37° C. under 90% air/10% CO2. Then, the supplemented DMEM medium was removed with a multichannel pipettor, and 200 μl iodine-loading buffer was added to each well with Rapid Plate™ (Zymark, MA). Cells were incubated for 2-4 hours at 37° C. under 90% air/10% CO2, and were subsequently washed with phosphate buffer saline (DPBS, Invitrogen, CA), or culture medium. […] The amount of I^− in the lysed cells was measured by the SK assay procedure described in Example 1.
IC50s were calculated with IDBS XL-fit model 205 (IDBS, UK).

SMILES | lowest concentration at which activation of CFTR was detected (human CFTR channel) [nM] | EC50 (human CFTR channel; one-half of activity with 100 μM Forskolin, read-out: EC50 for Forskolin, activation of CFTR channel) [nM] | IC50 (human GABAA channel; in the presence of 30 μM GABA) [nM] | IC50 (human GABAA channel; in the presence of 300 μM GABA) [nM]
C=C[C@@]1(C)CC(=O)[C@]2(O)[C@@]3(C)[C@@H](O)CCC(C)(C)[C@@H]3[C@H](O)[C@H](OC(C)=O)[C@@]2(C)O1 [Forskolin] | 300 | 1000 |  | 
CN1CCc2cc3c(cc2[C@H]1[C@@H]1OC(=O)c2c1ccc1c2OCO1)OCO3 [Bicuculline] |  |  | ~1000 | ~50000
